In patent US20020120008A1, “Life extension of drosophila by a drug treatment” (priority 2000, published 2002):

Experiments:
[1] = system: histones H3 and H4; test: Histone acetylation level by western blot in flies fed PBA; assay type: in vivo, Drosophila melanogaster; settings: flies fed PBA versus untreated, FIG. 4A and 4B
Excerpt: PBA, an inhibitor of histone deacetylase, is known to enhance acetylation in the tails of histones H3 and H4, which causes the tails to be released from the DNA (Lea et al. Induction of Histone Acetylation and Growth Regulation in Erythroleukemia Cells by 4-phenylbutyrate and Structural Analogs Anticancer Research 19:1971-1976 (1999)). The acetylation of histones changes the binding affinity between histones and DNA, and leads genes to recruit transcription factors and undergo transcription. Using western blots stained with specific antibodies, the level of histone acetylation was measured in Drosophila, with and without PBA treatment. Batches of 100 flies (males+females) were used to prepare histones (Alfageme, C. R., Zweidler, A., Mahowald, A. & Cohen, L. H. Histones of Drosophila embryos J. Biol. Chem. 12, 3729-3736 (1974)). The homogenates of whole flies were centrifuged at 2,500×g for 10 min in a medium containing 0.05 M glycine, 10 mM Tris potassium maleate, 5 mM MgCl2, 10 mM mercaptoethanol, pH 7.3. Isolated nuclei were used to extract histones by HCl treatment. 10 μg samples of histone protein were loaded on a 16.5% polyacrylamide gel for electrophoresis, then transferred to a PVDF membrane (Immobilin-P transfer membrane, Millipore, Bedford, Mass.), followed by hybridization with antibodies to acetylated and nonacetylated H3 and H4 (Upstate Biotechnology, Lake Placid, N.Y.).

[2] = system: Drosophila EST clones; test: Differential gene expression on high density membrane arrays; assay type: in vivo, Drosophila melanogaster; settings: 10 mM PBA, 10 days, 29° C.
Procedure: To investigate the differential pattern of gene activity resulting from PBA treatment, high density membrane arrays containing about 27,000 Drosophila EST clones (Research Genetics, Huntsville, Tenn.) were used. Messenger RNA was prepared from either 10 day old flies that had been treated with 10 mM PBA at 29° C. from emergence onward. A similar preparation was made from untreated flies. These RNA preparations were used as probes on the membrane arrays.
The Smart PCR cDNA synthesis kit (Clontech, Palo Alto, Calif.) was used to synthesize probes for hybridization. Total RNA was prepared from flies (males+females) fed for 10 days at 29° C. with medium containing 10 mM PBA or plain medium. After first strand synthesis of cDNAs by MMLV reverse transcriptase (M-MLV reverse transcriptase, Boehringer Mannheim, Indianapolis, Ind.), the cDNA was amplified by polymerase chain reaction (PCR). The reaction consisted of 95° C. for 1 minute, then 24 cycles of 95° C. for 15 seconds, 65° C. for 30 seconds, and 68° C. for 6 minutes. Probes were prepared by a random primed DNA labeling method with p^32. Filters containing 27,000 Drosophila EST clones (Research Genetics, Huntsville, Tenn.) were prehybridized for 4 hours, then probes were added to hybridize for 16 hours at 58° C. in a buffer containing 1 M NaCl, 0.05M Tris (pH 8.0), 5 mM EDTA, 1% SDS, and 10% Dextran Sulfate. […]

[3] = system: Drosophila; test: Locomotor activity, negative geotaxis in counter current distribution apparatus; assay type: in vivo, Drosophila melanogaster; settings: old flies, FIG. 3A
Procedure: Life extension without maintaining physical or mental vigor is undesirable. To examine whether the life span increase by PBA is associated with extended maintenance of vigor, the locomotor activity was measured for young and old flies raised with and without PBA treatment. A known assay of negative geotaxis in a counter current distribution apparatus was measured the locomotor activity of the flies (Benzer, S. Proc. Natl. Acad. Sci. U.S.A. 58, 1112-1119 (1967); FIG. 3A).

[4] = system: Drosophila; test: Reproductive activity of Drosophila fed PBA (eggs, adult progeny, progeny weight and size); assay type: in vivo, Drosophila melanogaster
Procedure: (§1) Table 1 is a comparison of weight, size and reproductive ability of Drosophila raised on food with and without 10 mM PBA for 10 days at 25° C., as described in Example 1, infra.
Reproductive signaling in C. elegans and Drosophila also contribute to extend life span (Guarente, L & Kenyon, C. Nature 408, 255-262 (2000)). PBA treatment may slow down reproduction of flies and thus results in the extension of life span. The role of PBA on the reproductive activity of female Drosophila was examined by counting the number of eggs layed, the percentage of eggs yielding adult progeny, and the weight and size of the progeny.

[5] = system: Drosophila; test: Life span of Drosophila fed PBA early or late in life; assay type: in vivo, Drosophila melanogaster
[6] = system: Drosophila; test: Life span of Drosophila fed various concentrations of PBA; assay type: in vivo, Drosophila melanogaster
[7] = system: histone deacetylase; settings: Lea & Randolph 1998; cited from earlier work
[8] = system: Drosophila; test: Food intake (food dye in alimentary tract), caloric restriction test; assay type: in vivo, Drosophila melanogaster; settings: overnight feeding, ten flies per group
Procedure: (§2) Caloric restriction increases life span in rodents, worms, and yeast (Guarente, L & Kenyon, C. Nature 408, 255-262 (2000)). Although PBA is odorless and tasteless to human, flies may dislike the smell or taste of the drug, which may cause caloric restriction. To test the issue of possible caloric restriction effects, the intake of food was measured by adding food dye to both the control and PBA containing media. After an overnight feeding, the alimentary tracts of ten flies from each group were dissected out and examined for color. No difference in the alimentary tract of these flies was discernible. Further, the weight and size of the flies were measured after ten days of feeding with or without PBA (Table 1). […] Therefore, the extension of life span observed in Drosophila fed PBA is most likely not due to caloric restriction.

[9] = system: Drosophila; test: Weight and size of flies fed PBA; assay type: in vivo, Drosophila melanogaster
Procedure: as §1, §2

[10] = system: Drosophila; test: Resistance to paraquat induced stress (survival); assay type: in vivo, Drosophila melanogaster; settings: sucrose solution containing 20 mM paraquat, FIG. 3C
Procedure: (§3) Stress to an animal can be achieved by starvation or an increase production of free radicals. The effective removal of free radicals or the increase of antioxidant levels reduce stress to the animal and are important in slowing down the ageing process. The failure to repair oxidative damages and the elevation of free radial is known to shorten the life span of animal. Therefore, resistance to stress was measured in PBA fed flies by measuring if they have an increase resistance to the free radical generator, paraquat, and to dry starvation. PBA treated and control flies drank sucrose solution containing 20 mM paraquat were tested for duration of life span (e.g. survival) (FIG. 3C). […] PBA treated and control flies were also put into empty vials to measure their survival on dry starvation (FIG. 3B).

[11] = system: transcription levels; test: Verification of changes in transcription levels (RT-PCR / Northern); settings: 10 mM PBA, 10 days, 29° C.
Procedure: In another embodiment of the invention RT-PCR was be used to verify the changes in transcription levels seen by the difference in hybridization on the membrane arrays. Newly emerged adult flies (males+females) were fed food containing 10 mM PBA, or plain food for 10 days at 29° C., then total RNA was extracted and used to synthesize cDNA. For each PCR reaction, 50 ng of cDNA was used. Primers were designed from the sequence of each gene to detect fragments of between 300 and 600 base pairs (Table 4). PCR reactions were performed with 30 cycles of 94° C. for 1 minute, 55° C. for 1 minute, and 72° C. for 1 minute.
Biochem. Biophys. 301, 34-40 (1993)). Elongation factor1-alpha plays a critical role in maintaining the level of protein synthesis, which normally declines with age (Webster, G. C. & Webster, S. L. Specific disappearance of translatable messenger RNA for elongation factor one in aging Drosophila melanogaster. Mech. Ageing Devel. 24, 335-342). […] Heat shock proteins enhance resistance to stress and extend life span (Tatar, M., Khazaeli, A. A. & Curtsinger, J. W. Chaperoning extended life. Nature 390, 30 (1997); Lithgow, G. J. Temperature, stress response and aging. Rev. Clin. Gerontol. 6, 119-127 (1996)).

[12] = system: Drosophila; test: Survival on dry starvation; assay type: in vivo, Drosophila melanogaster; settings: empty vials, FIG. 3B
Procedure: as §3

[13] = progeny of flies raised on 10 mM PBA, n = 10
[14] = progeny of flies raised on 10 mM PBA, n = 40
[15] = w^118 flies, medium containing 10 mM PBA, 29° C. (FIG. 1A)
[16] = 10 mM PBA, 10 days, 25° C., n = 10
[17] = 10 mM PBA, 10 days, 25° C., n = 40

O=C([O-])CCCc1ccccc1.[Na+] [PBA, 4-phenylbutyric acid, sodium salt]
acetylation of histones H3 and H4 [1]: increase of acetylated H3 and H4 | number of genes strongly induced [2]: One hundred | number of genes suppressed ([2]; disappearance of a visible spot): 48 | climbing ability (locomotor activity) [3]: enhanced the climbing ability of old flies significantly | egg laying ([4]; 3 males + 3 females a vial for 16 hrs, n = 20 vials, 10 mM PBA, 10 days, 25° C.): 70 ± 16 | effect on reproductive activity of female flies ([4]; all measurements of Table 1): no detrimental effect | % of eggs yielding adults ([4]; n = 20 vials, 10 mM PBA, 10 days, 25° C.): 70 ± 16% | weight of 5 flies, progeny females [4, 13]: 5.2 ± 0.2 mg | weight of 5 flies, progeny males [4, 13]: 3.5 ± 0.3 mg | size of fly, progeny female [4, 14]: 5.5 ± 0.1 mm | size of fly, progeny male [4, 14]: 4.6 ± 0.2 mm | life span compared with untreated flies ([5]; PBA from emergence to 12 days, then plain medium): increased life span compared with untreated flies | life span compared with untreated flies ([5]; plain medium for first 12 days, then PBA for remainder of life): increased life span compared with untreated flies | treatment initiated at later age versus young age ([5]; virgin female flies (not in males), FIG. 2A): even more effective than the same duration of treatment at young age | life span compared to same strain fed on fly medium ([6]; Canton-S strain, 10 mM PBA (FIG. 1C)): extended life span | effect on longevity ([6]; w^118 flies, lower concentrations of PBA (0.1, 1, 2.5, 5 mM)): no effect on longevity | extension in maximum life span [6, 15]: 60% | extension in median life span [6, 15]: about 35% | activity on histone deacetylase [7]: inhibits the activity of histone deacetylase | intake of food (colour of alimentary tract) [8]: No difference | weight of 5 flies, parent females [9, 16]: 5.1 ± 0.2 mg | weight of 5 flies, parent males [9, 16]: 3.3 ± 0.4 mg | size of fly, parent female [9, 17]: 5.5 ± 0.1 mm | size of fly, parent male [9, 17]: 4.6 ± 0.1 mm | weight and size of the flies versus control ([9]; after ten days of feeding with or without PBA): no differences were observed | survival under paraquat induced stress [10]: survived much longer | Fold-change, cytochrome P450-4d1 (CG3656) ([11]; induced): 7.2 fold | Fold-change, daughterless (CG5102) ([11]; induced): 8.0 fold | Fold-change, dnaJ like2 (CG3061) ([11]; induced): 2.9 fold | Fold-change, epididymal secretory protein (CG7291) ([11]; induced): 7.5 fold | Fold-change, glutathione S transferase (CG10045) ([11]; induced): 4.6 fold | Fold-change, hsc70 (CG4264) ([11]; induced): 4.5 fold | Fold-change, hsp60 (CG12101) ([11]; induced): 6.7 fold | Fold-change, imaginal disc growth factor1 (CG4472) ([11]; induced): 5.3 fold | Fold-change, inebriated (CG15444) ([11]; induced): 26.8 fold | Fold-change, mitochondrial phosphate carrier protein (CG4994) ([11]; induced): 5.1 fold | Fold-change, superoxide dismutase (CG8905) ([11]; induced): 51.9 fold | Fold-change, translational elongation factor1 α (CG8280) ([11]; induced): 4.1 fold | Fold-change, transportin (CG7398) ([11]; induced): 8.0 fold | Fold-Change, NADH:ubiquinone reductase 75kD subunit precursor (CG2286) ([11]; repressed): 25.3 fold | Fold-Change, calreticulin (GH25160) ([11]; repressed): 26.5 fold | Fold-Change, cyclin-dependent kinase9 (GH21935) ([11]; repressed): 2.7 fold | Fold-Change, cytochrome c oxidase (FBgn0013674) ([11]; repressed): 6.6 fold | Fold-Change, cytochrome c oxidase subunit Vlb (CG14235) ([11]; repressed): 2.2 fold | Fold-Change, dnaJ like1 (CG10578) ([11]; repressed): 13.2 fold | Fold-Change, fatty acid synthetase (CG3523) ([11]; repressed): 2.4 fold | Fold-Change, glyceraldehyde 3 phosphate dehydrogenase1 (CG12055) ([11]; repressed): 3.7 fold | Fold-Change, hexokinase (CG3001) ([11]; repressed): 5.0 fold | Fold-Change, osa (GH03026) ([11]; repressed): 5.0 fold | Fold-Change, peptidyl glycine α hydroxylating monooxygenase (CG3832) ([11]; repressed): 1.4 fold | Fold-Change, peroxisomal farnesylated protein (GH03076) ([11]; repressed): 1.8 fold | Fold-Change, porin (GH08586) ([11]; repressed): 1.4 fold | resistance to dry starvation [12]: enhanced the resistance to starvation
